Data: paper PMC6017171, “Comparative Evaluation of the Antioxidant and Anti-Alzheimer’s Disease Potential of Coumestrol and Puerarol Isolated from Pueraria lobata Using Molecular Modeling Studies” (Molecules : A Journal of Synthetic Chemistry and Natural …, 2018)
“Also recorded” adds a separate entry of the source. Read-outs that look alike come from different tables or passages of the source.

How the values were obtained:
[1] = DPPH radical scavenging activity; conditions: mean ± S.E.M of triplicate experiments
Experimental: DPPH radical scavenging activity was evaluated using the method of Blois, with slight modification. Test samples and DPPH were dissolved in methanol. Each test sample (160 µL) at various concentrations was added to 40 µL of DPPH solution (1.5 × 10^−4 M). After gently mixing and standing at room temperature for 30 min, the optical density of the reactant was measured at 520 nm using a VERSAmax microplate spectrophotometer (Molecular Devices, Sunnyvale, CA, USA). […] L-Ascorbic acid was used as a positive control.

[2] = ONOO− scavenging activity (DHR 123 oxidation); conditions: mean ± S.E.M of triplicate experiments; read-out: EC50 Peroxynitrite scavenging
Experimental: In brief, the rhodamine buffer (pH 7.4) consisted of 50 mM sodium phosphate dibasic, 50 mM sodium phosphate monobasic, 90 mM sodium chloride, 5.0 mM potassium chloride, and 100 μM diethylenetriamine pentaacetate. […] The assay buffer was prepared prior to use and placed on ice. Test samples were dissolved in 10% DMSO (100 μM final concentration). The background and final fluorescent intensities were measured 5 min after treatment with and without the addition of authentic ONOO^− (10 μM), dissolved in 0.3 N sodium hydroxide. […] L-penicillamine was used as a positive control.

BACE1 [3] = target: T1, BACE1 (Homo sapiens, UniProt P56817); experiment: In vitro BACE1 enzyme assay; format: biochemical; conditions: mean ± S.E.M of triplicate experiments
T1 construct: purchased
Experimental: The in vitro BACE1 enzyme assay was carried out according to the manufacturer’s recommended protocol with minor modifications. Briefly, a mixture of […] of assay buffer (50 mM sodium acetate, pH 4.5), […] of BACE1 (1.0 U/mL), […] of substrate (750 nM Rh-[…]-Quencher in 50 mM, ammonium bicarbonate) and […] of the test sample was dissolved in 10% DMSO and incubated for 60 min at 25 °C in the dark. Proteolysis of the two fluorophores (Rh-[…]-Quencher) by BACE1 was determined by monitoring formation of the fluorescent donor (Rh-EVNL) at wavelengths of 545 nm for excitation and 585 nm for emission. Fluorescence was measured with a microplate spectrofluorometer (Gemini EM, Sunnyvale, CA, USA).

BACE1 [4] = target: T1, BACE1; experiment: Enzyme kinetic analysis for BACE1 inhibition (Lineweaver-Burk and secondary plots); format: biochemical; conditions: for Inhibition mode, BACE1: Lineweaver-Burk plots; for Ki: secondary plot
Experimental: (§1) To elucidate the mechanisms of ChE inhibition, kinetic studies of enzyme activity were performed. The slope or intercept in Lineweaver-Burk plots were drawn in SigmaPlot 12.0 as a function of inhibitor concentration, and the kinetic parameters were determined.
(§2) To determine the mechanism of inhibition, AChE, BChE, and BACE1 inhibition was evaluated by monitoring the effects of different concentrations of substrate (0.4 to 0.8 mM for AChE and BChE; 250 to 750 nM for BACE1). Specifically, AChE, BChE, and BACE1 inhibition assays were performed as described above, but the substrate concentration was varied. Inhibition modes of coumestrol and puerarol against ChEs and BACE1 were determined by Lineweaver–Burk plots. Inhibition constants (Ki) were determined by secondary plots.

horse serum BChE [5] = target: T2, horse serum BChE (Equus caballus, UniProt P81908); experiment: In vitro ChE enzyme assay (Ellman), BChE; format: biochemical; conditions: substrate BTCh; mean ± S.E.M of triplicate experiments
T2 construct: horse serum BChE (EC 3.1.1.8); purchased Sigma-Aldrich Co. (St. Louis, MO, USA); host or cells: horse serum
Experimental: (§3) Electric eel AChE (EC 3.1.1.7), horse serum BChE (EC 3.1.1.8), acetylthiocholine iodide (ATCh), butyrylthiocholine chloride (BTCh), 5,5-dithiobis[2-nitrobenzoic acid] […] All required reagent-grade chemicals used in this study were purchased from commercial sources. Coumestrol and puerarol were isolated from P. lobata as described by Seong et al..
(§4) The inhibitory activity of coumestrol and puerarol against ChEs was measured using the spectrophotometric methods reported by Ellman et al. and Jung et al.. ATCh and BTCh were used as substrates to assay the inhibition of AChE and BChE, respectively. All reactions were performed in triplicate and were recorded in a 96-well microplate format using a microplate spectrophotometer (Molecular Devices, Sunnyvale, CA, USA). Percent inhibition was calculated as (1 − S/E) × 100, where E and S were the enzyme activities without and with the test sample, respectively.

[6] = Western blot analysis for inhibition of ONOO−-mediated nitrotyrosine formation (BSA nitration)
Experimental: Figure 2 Dose-depended inhibition of ONOO^−-mediated albumin nitration by coumestrol and puerarol. Mixtures of test samples, bovine serum albumin (BSA), and ONOO^− were incubated with shaking at 37 °C for 30 min. The reactant was resolved in 10% polyacrylamide gel via electrophoresis. (a) Coumestrol; and (b) puerarol, were used at the indicated concentrations; (c) Quantification of band intensity was calculated using CS Analyzer 3.00 (ATTO Corp., Tokyo, Japan). ^# p < 0.05 indicates a significant difference from the untreated normal group, * p < 0.05 indicate significant differences from the ONOO^− treated control.
The inhibition of ONOO^−-nitrotyrosine formation was evaluated using the method of Aulak et al.. Samples were added to BSA and mixed with ONOO^− (200 µM). After a 10 min incubation period (room temperature), the sample solution was added to Bio-Rad 2X Laemmli Sample buffer with mercaptoethanol and then boiled for 7 min. The reactant was resolved in 10% polyacrylamide gel via electrophoresis and transferred to PVDF membranes. Pre-stained blue protein markers were used for molecular weight determination. […] Densitometric analysis of the western blot results was determined using a CS analyzer v3.00 (ATTO Corp.).

Electric eel AChE [7] = target: T3, Electric eel AChE (Electrophorus electricus, UniProt O42275); experiment: In vitro ChE enzyme assay (Ellman), AChE; format: biochemical
T3 construct: purchased Sigma-Aldrich Co. (St. Louis, MO, USA)
Experimental: as §3, §4

[8] = cited from earlier work
Electric eel AChE [9] = target: T3, Electric eel AChE; experiment: Enzyme kinetic analysis for AChE inhibition (Lineweaver-Burk and secondary plots); format: biochemical; conditions: for Inhibition mode, AChE: Lineweaver-Burk plots
Experimental: as §1, §2

horse serum BChE [10] = target: T2, horse serum BChE; experiment: Enzyme kinetic analysis for BChE inhibition (Lineweaver-Burk and secondary plots); format: biochemical; conditions: for Inhibition mode, BChE: Lineweaver-Burk plots; for Ki: secondary plot
Experimental: as §1, §2

[11] = substrate ATCh, mean ± S.E.M of triplicate experiments, read-out: IC50 AChE

T2 sequence (P81908 whole entry): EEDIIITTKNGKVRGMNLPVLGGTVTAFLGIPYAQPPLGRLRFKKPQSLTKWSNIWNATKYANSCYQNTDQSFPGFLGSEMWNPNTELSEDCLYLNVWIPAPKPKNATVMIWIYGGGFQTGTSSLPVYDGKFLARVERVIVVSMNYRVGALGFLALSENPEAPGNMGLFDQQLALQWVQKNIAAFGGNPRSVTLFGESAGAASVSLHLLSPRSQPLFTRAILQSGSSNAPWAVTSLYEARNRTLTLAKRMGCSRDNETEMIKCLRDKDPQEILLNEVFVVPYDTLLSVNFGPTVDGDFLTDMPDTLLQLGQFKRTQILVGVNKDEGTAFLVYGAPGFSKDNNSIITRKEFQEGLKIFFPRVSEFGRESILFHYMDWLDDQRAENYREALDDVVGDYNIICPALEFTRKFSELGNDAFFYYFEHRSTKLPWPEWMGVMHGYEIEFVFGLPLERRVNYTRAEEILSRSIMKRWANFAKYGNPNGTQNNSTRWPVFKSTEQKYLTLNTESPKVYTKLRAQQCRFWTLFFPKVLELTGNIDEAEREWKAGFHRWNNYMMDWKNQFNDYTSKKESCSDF
T1 sequence (P56817 46-501): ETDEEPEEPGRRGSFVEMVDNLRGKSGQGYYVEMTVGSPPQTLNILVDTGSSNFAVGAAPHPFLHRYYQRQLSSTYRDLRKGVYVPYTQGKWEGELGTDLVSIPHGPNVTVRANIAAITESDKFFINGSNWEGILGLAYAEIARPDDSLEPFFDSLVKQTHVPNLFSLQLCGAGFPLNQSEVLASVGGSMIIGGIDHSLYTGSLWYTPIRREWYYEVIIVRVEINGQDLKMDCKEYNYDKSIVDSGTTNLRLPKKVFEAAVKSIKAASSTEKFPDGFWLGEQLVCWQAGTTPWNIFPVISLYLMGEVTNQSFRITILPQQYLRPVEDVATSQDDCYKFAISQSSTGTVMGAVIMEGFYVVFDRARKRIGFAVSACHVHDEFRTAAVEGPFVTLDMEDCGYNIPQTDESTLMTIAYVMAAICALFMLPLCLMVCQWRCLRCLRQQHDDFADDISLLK
T3 sequence (O42275 24-633): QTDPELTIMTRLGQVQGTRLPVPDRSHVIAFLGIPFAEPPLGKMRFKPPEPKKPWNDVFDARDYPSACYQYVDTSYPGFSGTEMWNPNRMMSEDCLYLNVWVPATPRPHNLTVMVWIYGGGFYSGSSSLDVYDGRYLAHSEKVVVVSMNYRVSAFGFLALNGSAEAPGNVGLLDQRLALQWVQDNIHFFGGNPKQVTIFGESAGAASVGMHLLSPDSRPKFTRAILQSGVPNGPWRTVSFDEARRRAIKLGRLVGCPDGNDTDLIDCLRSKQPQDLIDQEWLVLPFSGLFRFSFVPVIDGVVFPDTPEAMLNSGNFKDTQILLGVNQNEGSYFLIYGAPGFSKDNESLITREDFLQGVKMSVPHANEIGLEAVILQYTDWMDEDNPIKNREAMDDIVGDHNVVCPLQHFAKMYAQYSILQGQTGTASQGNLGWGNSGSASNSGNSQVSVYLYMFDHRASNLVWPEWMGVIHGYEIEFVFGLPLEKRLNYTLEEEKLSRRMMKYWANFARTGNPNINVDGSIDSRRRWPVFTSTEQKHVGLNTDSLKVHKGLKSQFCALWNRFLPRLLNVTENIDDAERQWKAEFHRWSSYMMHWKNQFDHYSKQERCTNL

## O=C1O[C@H]([C@@H](O)CO)C(O)=C1O [L-Ascorbic acid, reference compound]
[1]
  EC50: 17.4 ± 0.32 µM

## CC(C)=CCCC(C)=CCc1cc2c(cc1O)oc(=O)c1c3ccc(O)cc3oc21 [Puerarol]
[2]
  EC50: 6.99 ± 0.3 µM
BACE1 [3]
  IC50: 28.2 ± 2.48 µM
BACE1 [4]
  Inhibition mode, BACE1: Mixed-type ^e
BACE1 [4]; listed as puerarol
  Inhibition mode, BACE1: mixed inhibition; also recorded: mixed type
BACE1 [4]; binding constant of inhibitor with enzyme-substrate complex, read-out: Ki value Kiu, BACE1
  Ki: 73.2 µM
BACE1 [4]; binding constant of inhibitor with free enzyme, read-out: Ki value Kic, BACE1
  Ki: 33.8 µM
[1]
  EC50: 82.5 ± 1.33 µM
Horse serum BChE [5]
  IC50: > 200 µM
[6]; 50–200 µM
  Blot intensity of ONOO−-mediated nitrated BSA: dose dependent decrease
Electric eel AChE [7]; [11]
  IC50: 145 ± 2.46 µM

## COc1ccc2cc3[n+](cc2c1OC)CCc1cc2c(cc1-3)OCO2 [Berberine, berberine chloride, reference compound]
Electric eel AChE [7]
  IC50: 2.22 ± 0.02 µM

## COc1cc(O)c2c(c1)oc(=O)c1c3cc(O)c(O)cc3oc21 [wedelolactone, reference compound]
[8]; read-out: DPPH scavenging activity IC50
  IC50: 7 µM

## O=c1oc2cc(O)ccc2c2oc3cc(O)ccc3c12 [Coumestrol]
[2]
  EC50: 1.17 ± 0.11 µM
[8]; ref 29 (Booth et al.)
  DPPH scavenging: inactivity
BACE1 [3]
  IC50: 51 ± 1.86 µM
[1]
  EC50: 54 ± 1 µM
Horse serum BChE [5]
  IC50: 24.6 ± 2.28 µM
Electric eel AChE [9]
  Inhibition mode, AChE: Competitive
Electric eel AChE [9]; listed as coumestrol
  Inhibition mode, AChE: competitive
Electric eel AChE [9]; secondary plot, binding constant of inhibitor with free enzyme, read-out: Ki value Kic, AChE
  Ki: 48.9 µM
Horse serum BChE [10]
  Inhibition mode, BChE: Mixed-type
Horse serum BChE [10]; listed as coumestrol
  Inhibition mode, BChE: mixed type
Horse serum BChE [10]; binding constant of inhibitor with enzyme-substrate complex, read-out: Ki value Kiu, BChE
  Ki: 41.9 µM
Horse serum BChE [10]; binding constant of inhibitor with free enzyme, read-out: Ki value Kic, BChE
  Ki: 12.1 µM
[6]; 10 µM to 100 µM
  Blot intensity of ONOO−-mediated nitrated BSA: dose dependent decrease
Electric eel AChE [7]; [11]
  IC50: 42.3 ± 1.29 µM
